Key:
[1] = molecular target: caspase-like activity of purified rabbit 20S proteasomes (Oryctolagus cuniculus, UniProt G1T235); test: In vitro inhibition of caspase-like activity of purified rabbit muscle 20S proteasome (Z-LLE-AMC); type: biochemical; settings: IC50 Values, purified rabbit 20S proteasome
[2] = system: chymotrypsin-like activity of the 20S proteasome in RPMI 8226 cells; test: Chymotrypsin-like activity of proteasomes in RPMI 8226 cells after 1 hr exposure, measured in cell lysates (Suc-LLVY-AMC); type: cell-based, human; settings: for % inhibition of the 20S proteasome chymotrypsin-like activity in RPMI 8826 cells: 1 hr incubation
Procedure: RPMI 8226 (ATCC, CCL-155), the human multiple myeloma cell line, was cultured in RPMI 1640 medium supplemented with 2 mM L-Glutamine, 1% Penicillin/Streptomycin, 10 mM HEPES and 10% Fetal Bovine Serum at 37° C., 5% CO2 and 95% humidified air. To evaluate the inhibitory effects on the chymotrypsin-like activity of the 20S proteasome, test compounds prepared in DMSO were appropriately diluted in culture medium and added to 1×10^6/ml RMPI 8226 cells at final concentration of 1, 5 or 10 nM. DMSO was used as the vehicle control at a final concentration of 0.1%. Following 1 hr incubation of RMPI 8226 cells with the compounds, the cells were pelleted by centrifugation at 2,000 rpm for 10 sec at room temperature and washed 3× with ice-cold 1× Dubach's Phosphate-Buffered Saline (DPBS, Mediatech, Herndon, Va.). DPBS washed cells were lysed on ice for 15 min in lysis buffer (20 mM HEPES, 0.5 mM EDTA, 0.05% Triton X-100, pH 7.3) supplemented with protease inhibitor cocktail (Roche Diagnostics, Indianapolis, Ind.). Cell debris was pelleted by centrifugation at 14,000 rpm for 10 min, 4° C. and supernatants (=cell lysates) were transferred to a new tube. Protein concentration was determined by the BCA protein assay kit (Pierce Biotechnology, Rockford, Ill.). […] The reactions were initiated by the addition of 10 μL of 0.4 mM Suc-LLVY-AMC (prepared by diluting a 10 mM solution of the peptide in DMSO 1:25 with assay buffer) to 190 μL of the cell lysates in 96-well Costar microtiter plate and incubated in the Thermo Lab Systems Fluoroskan plate reader at 37° C. Fluorescence of the cleaved peptide substrate was measured at λex=390 nm and λem=460 nm. All data were collected every five minutes for 2 hour. The total protein used for each assay was 20 μg. The final concentration of Suc-LLVY-AMC and DMSO was 20 μM and 0.2%, respectively. After subtraction of the background (the values from wells containing buffer and substrate in the absence of cell lysate), the activity of test compound was expressed as % inhibition as normalized to the proteasome activity observed in the DMSO treated control cells.

Q: Which IC50 ([1]; XVI-1A obtained by fermentation) does the source give for `C[C@@]12OC(=O)[C@]1([C@@H](O)[C@@H]1C=CCCC1)NC(=O)[C@@H]2CCCl` [XVI-1A, Salinosporamide A] here?
A: 0.387 µM

Q: And the IC50 ([1]; XVI-1A obtained synthetically)?
A: 0.467 µM

Q: And the “% inhibition of the 20S proteasome chymotrypsin-like activity in RPMI 8826 cells” value (from here on “% inhibition”) ([2]; fermentation XVI-1A, 1 nM)?
A: 38%

Q: And the “% inhibition” value ([2]; fermentation XVI-1A, 5 nM)?
A: 86%

Q: What about the “% inhibition” value ([2]; fermentation XVI-1A, 10 nM) of the same compound?
A: 97%

Q: What about the “inhibition of the 20S proteasome chymotrypsin-like activity on exposure of RPMI 8226 cells” value ([2]; fermentation or synthetic XVI-1A, 1, 5 or 10 nM) of the same compound?
A: dose-dependent inhibition

Q: And the “% inhibition” value ([2]; synthetic XVI-1A, 1 nM)?
A: 32%

Q: And the “% inhibition” value ([2]; synthetic XVI-1A, 5 nM)?
A: 79%

Q: What about the “% inhibition” value ([2]; synthetic XVI-1A, 10 nM) of the same compound?
A: 96%
